Assay [1] concerns Amyloid-β peptide release (Aβ42), HEK cells overexpressing APP (HEK-APP). Put plainly: Amyloid-β peptide release (Aβ42) assay, AlphaLISA on supernatant of HEK-APP cells. Particulars: Homo sapiens, HEK293, 24 h incubation with compound, read-out: Ab42 IC50 Ranges. Type of assay: cell-based. The method, then:
(§1) Amyloid-β Peptide Release (Aβ42 & AβTotal) Assay to Determine IC50 Values.
(§2) Compounds are dissolved in and diluted in 100% DMSO and incubated with HEK-APP cells for 24 h at 37° C. in 5% CO2. The supernatant from HEK-APP cells are mixed with antibodies: for Aβ42 detection: AlphaLISA Amyloid-β 1-42 Kit (Perkin Elmer AL203L) Anti-Amyloid β1-42-specific antibody acceptor beads, biotinylated anti-Amyloid-“β1-42” antibody and streptavidin (SA) donor beads diluted in AlphaLISA buffer (to the instructions of the supplier). For Aβ total detection: Custom Anti-Amyloid-βtotal acceptor beads (6E10 acceptor beads), biotinylated anti-Amyloid “β1-42” antibody (Perkin Elmer AL203L) and streptavidin (SA) donor beads diluted in AlphaLISA buffer (to the instructions of the supplier). After addition of supernatant to the antibody mix, the assay is incubated for 4.5 h. Amyloid-β peptide release (Aβ42 & AβTotal) is measured with a Pherastar FS (BMG) multimode reader using the alphascreen module.
For orientation: In Alpha technology, singlet oxygen from a donor bead excites a nearby acceptor bead.

Assay [2] has as its system Amyloid-β peptide release (AβTotal), HEK cells overexpressing APP (HEK-APP). The assay is described as follows: Amyloid-β peptide release (AβTotal) assay, AlphaLISA on supernatant of HEK-APP cells. Type of assay: cell-based. Particulars: ratio Abtot vs Ab42, HEK-APP cells, 24 h. The method, then:
as §1, §2

For orientation: IC50 means the point on the concentration scale where inhibition reaches its midpoint.

With `Cc1ncc2oc(-c3ccc(NC(=O)Cc4ccccc4C(F)(F)F)cc3)nn12` [Example 1, N-[4-(5-Methyl-imidazo[5,1-b][1,2,4]oxadiazol-2-yl)-phenyl]-2-(2-trifluoromethyl-phenyl)-acetamide], the IC50 in assay [1] lay within 500 to 1000 nM. Besides, the Abtot/Ab42 selectivity ranges result in assay [2] was “b (b: 100 fold > selectivity ≥ 50 fold)”.
The like results for `Cc1cccc(CC(=O)Nc2ccc(-c3nn4c(C)ncc4o3)cc2)c1` [Example 2, N-[4-(5-Methyl-imidazo[5,1-b][1,2,4]oxadiazol-2-yl)-phenyl]-2-m-tolyl-acetamide] were, in that order, 1000 to 2200 nM and “c (c: 50 fold > selectivity ≥ 10 fold)”.
In the case of `Cc1ncc2oc(-c3ccc(NC(=O)Cc4cccc(C(F)(F)F)c4)cc3)nn12` [Example 3, N-[4-(5-Methyl-imidazo[5,1-b][1,2,4]oxadiazol-2-yl)-phenyl]-2-(3-trifluoromethyl-phenyl)-acetamide], the concentration for half-maximal inhibition (IC50) in assay [1] is 1000 to 2200 nM. In addition, in assay [2], the Abtot/Ab42 selectivity ranges entry was “c (c: 50 fold > selectivity ≥ 10 fold)”.
For the molecule `Cc1ncc2oc(-c3ccc(NC(=O)Cc4ccc(Cl)c(C(F)(F)F)c4)cc3)nn12` [Example 4], the IC50 in assay [1] fell in the range of 1000 to 2200 nM. Also, the Abtot/Ab42 selectivity ranges result in assay [2] is reported as “c (c: 50 fold > selectivity ≥ 10 fold)”.
In the same order, the values of `Cc1ncc2oc(-c3ccc(NC(=O)Cc4ccc(C(F)(F)F)cc4Br)cc3)nn12` [Example 5, 2-(2-Bromo-4-trifluoromethyl-phenyl)-N-[4-(5-methyl-imidazo[5,1-b][1,2,4]oxadiazol-2-yl)-phenyl]-acetamide] are 500 to 1000 nM and “c (c: 50 fold > selectivity ≥ 10 fold)”.
The like results for `Cc1ncc2oc(-c3ccc(NC(=O)Cc4ccc(OC(F)(F)F)cc4)cc3)nn12` [Example 6, N-[4-(5-Methyl-imidazo[5,1-b][1,2,4]oxadiazol-2-yl)-phenyl]-2-(4-trifluoromethoxy-phenyl)-acetamide] were, in that order, 500 to 1000 nM and “c (c: 50 fold > selectivity ≥ 10 fold)”.
On to `Cc1ncc2oc(-c3ccc(NC(=O)Cc4c(F)cc(Cl)cc4F)cc3)nn12` [Example 7, 2-(4-Chloro-2,6-difluoro-phenyl)-N-[4-(5-methyl-imidazo[5,1-b][1,2,4]oxadiazol-2-yl)-phenyl]-acetamide], for which the IC50 in assay [1] lay in the range of 500 to 1000 nM. Moreover, the Abtot/Ab42 selectivity ranges result in assay [2] is “b (b: 100 fold > selectivity ≥ 50 fold)”.
The like results for `CCOc1ccc(CC(=O)Nc2ccc(-c3nn4c(C)ncc4o3)cc2)cc1` [Example 8, 2-(4-Ethoxy-phenyl)-N-[4-(5-methyl-imidazo[5,1-b][1,2,4]oxadiazol-2-yl)-phenyl]-acetamide] were, in that order, 1000 to 2200 nM and “c (c: 50 fold > selectivity ≥ 10 fold)”.
On to `Cc1ncc2oc(-c3ccc(NC(=O)Cc4cccc(Br)c4)cc3)nn12` [Example 9, 2-(3-Bromo-phenyl)-N-[4-(5-methyl-imidazo[5,1-b][1,2,4]oxadiazol-2-yl)-phenyl]-acetamide], for which the IC50 in assay [1] lay in the range of 500 to 1000 nM. Further, the Abtot/Ab42 selectivity ranges result in assay [2] is listed as “c (c: 50 fold > selectivity ≥ 10 fold)”.
The like results for `Cc1ccc(C)c(CC(=O)Nc2ccc(-c3nn4c(C)ncc4o3)nc2)c1` [Example 10, 2-(2,5-Dimethyl-phenyl)-N-[6-(5-methyl-imidazo [5,1-b][1,2,4]oxadiazol-2-yl)-pyridin-3-yl]-acetamide] were, in that order, 1000 to 2200 nM and “c (c: 50 fold > selectivity ≥ 10 fold)”.
On to `Cc1ncc2oc(-c3ccc(NC(=O)Cc4ccc(OC(F)(F)F)cc4)cn3)nn12` [Example 11, N-[6-(5-Methyl-imidazo[5,1-b][1,2,4]oxadiazol-2-yl)-pyridin-3-yl]-2-(4-trifluoromethoxy-phenyl)-acetamide], for which, in assay [1], the IC50 was 100 to 500 nM. Further, the Abtot/Ab42 selectivity ranges entry in assay [2] is reported as “b (b: 100 fold > selectivity ≥ 50 fold)”.
Consider `Cc1ncc2oc(-c3ccc(NC(=O)Cc4ccc(Cl)c(Cl)c4)cn3)nn12` [Example 12, 2-(3,4-Dichloro-phenyl)-N-[6-(5-methyl-imidazo[5,1-b][1,2,4]oxadiazol-2-yl)-pyridin-3-yl]-acetamide], for which, in assay [1], the IC50 fell in the range of 500 to 1000 nM. Besides, the Abtot/Ab42 selectivity ranges entry in assay [2] is recorded as “c (c: 50 fold > selectivity ≥ 10 fold)”.
Regarding `Cc1ncc2oc(-c3ccc(NC(=O)Cc4cccc5ccccc45)cn3)nn12` [Example 13, N-[6-(5-Methyl-imidazo[5,1-b][1,2,4]oxadiazol-2-yl)-pyridin-3-yl]-2-naphthalen-1-yl-acelamide], in assay [1], the IC50 fell in the range of 1000 to 2200 nM. Besides, in assay [2], the Abtot/Ab42 selectivity ranges result is recorded as “c (c: 50 fold > selectivity ≥ 10 fold)”.
The like results for `Cc1ncc2oc(-c3ccc(NC(=O)Cc4cccc(C(F)(F)F)c4)cn3)nn12` [Example 14, N-[6-(5-Methyl-imidazo[5,1-b][1,2,4]oxadiazol-2-yl)-pyridin-3-yl]-2-(3-trifluoromethyl-phenyl)-acetamide] were, in that order, 1000 to 2200 nM and “c (c: 50 fold > selectivity ≥ 10 fold)”.
As for `Cc1ncc2oc(-c3ccc(NC(=O)Cc4cccc(Oc5ccccc5)c4)cn3)nn12` [Example 15, N-[6-(5-Methyl-imidazo[5,1-b][1,2,4]oxadiazol-2-yl)-pyridin-3-yl]-2-(3-phenoxy-phenyl)-acetamide], the IC50 in assay [1] lay within 500 to 1000 nM. Further, in assay [2], the Abtot/Ab42 selectivity ranges entry is listed as “b (b: 100 fold > selectivity ≥ 50 fold)”.
In the same order, the values of `Cc1ncc2oc(-c3ccc(NC(=O)c4ccc(F)c(OC(F)(F)F)c4)cn3)nn12` [Example 16, 4-Fluoro-N-[6-(5-methyl-imidazo[5,1-b][1,2,4]oxadiazol-2-yl)-pyridin-3-yl]-3-trifluoromethoxy-benzamide] are 1000 to 2200 nM and “d (d: 10 fold > selectivity)”.
The like results for `COc1cc(C(=O)NCc2cccc(C(F)(F)F)c2)ccc1-c1nn2c(C)ncc2o1` [Example 18, 3-Methoxy-4-(5-methyl-imidazo[5,1-b][1,2,4]oxadiazol-2-yl)-N-(3-trifluoromethyl-benzyl)-benzamide] were, in that order, 1000 to 2200 nM and “c (c: 50 fold > selectivity ≥ 10 fold)”.
Turning to `COc1cc(C(=O)NCc2ccc(Cl)c(Cl)c2)ccc1-c1nn2c(C)ncc2o1` [Example 19, N-(3,4-Dichloro-benzyl)-3-methoxy-4-(5-methyl-imidazo[5,1-b][1,2,4]oxadiazol-2-yl)-benzamide], the IC50 in assay [1] is 1000 to 2200 nM. For the same molecule, in assay [2], the Abtot/Ab42 selectivity ranges entry is “c (c: 50 fold > selectivity ≥ 10 fold)”.
In the case of `COc1cc(C(=O)NCc2cccc3ccccc23)ccc1-c1nn2c(C)ncc2o1` [Example 20, 3-Methoxy-4-(5-methyl-imidazo[5,1-b][1,2,4]oxadiazol-2-yl)-N-naphthalen-1-ylmethyl-benzamide], the IC50 in assay [1] was 1000 to 2200 nM. Besides, in assay [2], the Abtot/Ab42 selectivity ranges result is listed as “c (c: 50 fold > selectivity ≥ 10 fold)”.
In the same order, the values of `CCc1ncc2oc(-c3ccc(C(=O)NCc4cccc5ccccc45)cc3)nn12` [Example 21] are 1000 to 2200 nM and “c (c: 50 fold > selectivity ≥ 10 fold)”.
With `Cc1nc(C)n2nc(-c3ccc(C(=O)NCc4cccc5ccccc45)cc3)oc12` [Example 22, 4-(5,7-Dimethyl-imidazo[5,1-b][1,2,4]oxadiazol-2-yl)-N-naphthalen-1-ylmethyl-benzamide], in assay [1], the 50% inhibitory concentration (IC50) lay in the range of 500 to 1000 nM. Also, the Abtot/Ab42 selectivity ranges entry in assay [2] is reported as “c (c: 50 fold > selectivity ≥ 10 fold)”.
For the molecule `Cc1nc(C)n2nc(-c3ccc(C(=O)NCc4ccccc4C(F)(F)F)cc3)oc12` [Example 23, 4-(5,7-Dimethyl-imidazo[5,1-b][1,2,4]oxadiazol-2-yl)-N-(2-trifluoromethyl-benzyl)-benzamide], the half-inhibitory concentration (IC50) in assay [1] fell in the range of 1000 to 2200 nM. Besides, the Abtot/Ab42 selectivity ranges result in assay [2] is listed as “c (c: 50 fold > selectivity ≥ 10 fold)”.
In the same order, the values of `Cc1ncc2oc(-c3ccc(Nc4nc5n(n4)CCCC5c4ccc(F)cc4)cc3)nn12` (stereo not drawn) [Example 24, 8-(4-fluorophenyl)-N-(4-(5-methylimidazo[5,1-b][1,3,4]oxadiazol-2-yl)phenyl)-5,6,7,8-tetrahydro-[1,2,4]triazolo[1,5-a]pyridin-2-amine] are 500 to 1000 nM and “c (c: 50 fold > selectivity ≥ 10 fold)”.
The like results for `Cc1ncc2oc(-c3ccc(Nc4nc5n(n4)CCCC5c4ccc(Cl)cc4Cl)cc3)nn12` (stereo not drawn) [Example 25, [8-(2,4-Dichloro-phenyl)-5,6,7,8-tetrahydro-[1,2,4]triazolo[1,5-a]pyridin-2-yl]-[4-(5-methyl-imidazo[5,1-b][1,2,4]oxadiazol-2-yl)-phenyl]-amine] were, in that order, 500 to 1000 nM and “c (c: 50 fold > selectivity ≥ 10 fold)”.
The like results for `Cc1ncc2oc(-c3ccc(Nc4nc5c(s4)CCCC5c4ccccc4)cc3)nn12` (stereo not drawn) [Example 26, [4-(5-Methyl-imidazo[5,1-b][1,2,4]oxadiazol-2-yl)-phenyl]-(4-phenyl-4,5,6,7-tetrahydro-benzothiazol-2-yl)-amine] were, in that order, 1000 to 2200 nM and “c (c: 50 fold > selectivity ≥ 10 fold)”.
Regarding `Cc1ncc2sc(C(=O)N3CCCC3c3ccc(Cl)cc3)nn12` (stereo not drawn) [Example 118, [2-(4-Chloro-phenyl)-pyrrolidin-1-yl]-(5-methyl-imidazo[5,1-b][1,3,4]thiadiazol-2-yl)-methanone], the IC50 in assay [1] lay in the range of 100 to 500 nM.
